This is an account of results in patent publication US5686482A, “N-(3-pyrrolidinyl) benzamide derivative” (priority 1994, dated 1997).

Read-outs that look alike come from different tables or passages of the source.

For data set [1], the system named is apomorphine-induced climbing behavior. As to the kind of experiment: antagonism test on apomorphine-induced climbing behavior. Format: in vivo. The conditions noted are these: Mus musculus; SC administration, 15 minutes before apomorphine 2 mg/kg SC; ICR mice; measured during 30 minutes. As to the method: 2) Antagonism test on apomorphine-induced climbing behavior
Each test compound was administered to ICR mice (body weight, around 35 g; Japan SLC) by subcutaneous injection and, after 15 minutes, apomorphine (2 mg/kg) was subcutaneously injected.

The test system of another data set is schizophrenia patients. The conditions noted are these: cited from earlier work.
The next data set has as its target T1, D2 receptor (Rattus norvegicus, UniProt P61169).
T1 construct: expressed in transfected cells
As to the kind of experiment: receptor binding test, D2 receptor. The conditions noted are these: cloned receptor membrane, [125I]iodosulpride or [3H]YM-09151-2, 25° C., 1 hour.

A further data set deals with T2, D3 receptor (Rattus norvegicus, UniProt P19020).
T2 construct: expressed in transfected cells
T2 sequence (P19020 whole entry): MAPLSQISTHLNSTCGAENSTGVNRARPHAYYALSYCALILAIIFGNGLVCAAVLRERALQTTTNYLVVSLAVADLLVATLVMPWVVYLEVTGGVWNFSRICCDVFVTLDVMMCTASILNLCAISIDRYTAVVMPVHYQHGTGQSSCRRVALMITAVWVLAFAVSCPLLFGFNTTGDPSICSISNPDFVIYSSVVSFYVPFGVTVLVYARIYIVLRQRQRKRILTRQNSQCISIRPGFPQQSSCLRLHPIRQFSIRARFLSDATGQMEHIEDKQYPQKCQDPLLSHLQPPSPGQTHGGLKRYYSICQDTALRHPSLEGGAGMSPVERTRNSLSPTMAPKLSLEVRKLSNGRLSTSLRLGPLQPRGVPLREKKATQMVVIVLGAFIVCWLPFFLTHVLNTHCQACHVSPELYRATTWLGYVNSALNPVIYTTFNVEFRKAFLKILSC
The data set can be described thus: receptor binding test, D3 receptor. The conditions noted are these: for Ki: cloned receptor membrane, [125I]iodosulpride or [3H]YM-09151-2, 25° C., 1 hour; for Ratio D2/D3: ratio of Ki values.

For another data set, the target named is T3, D4 receptor (Homo sapiens, UniProt P21917).
T3 sequence (P21917 1-419): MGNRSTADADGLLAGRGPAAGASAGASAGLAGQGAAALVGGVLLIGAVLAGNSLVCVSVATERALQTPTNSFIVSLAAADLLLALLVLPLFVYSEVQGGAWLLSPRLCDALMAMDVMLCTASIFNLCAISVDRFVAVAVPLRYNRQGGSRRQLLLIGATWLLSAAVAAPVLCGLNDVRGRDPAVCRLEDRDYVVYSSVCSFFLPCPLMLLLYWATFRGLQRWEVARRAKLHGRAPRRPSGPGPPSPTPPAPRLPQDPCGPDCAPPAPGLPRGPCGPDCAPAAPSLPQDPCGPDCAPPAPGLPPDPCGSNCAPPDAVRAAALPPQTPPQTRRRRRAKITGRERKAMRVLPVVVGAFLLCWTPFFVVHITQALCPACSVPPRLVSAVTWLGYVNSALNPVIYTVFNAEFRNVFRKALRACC
The data set can be described thus: receptor binding test, D4 receptor. The conditions noted are these: for Ki: cloned receptor membrane, [125I]iodosulpride or [3H]YM-09151-2, 25° C., 1 hour; for Ratio D2/D4: ratio of Ki values.

Data set [2] concerns D2, D3 and D4 subtype receptors. The conditions noted are these: existing antipsychotic agents; cited from earlier work.

T1 sequence (P61169 whole entry): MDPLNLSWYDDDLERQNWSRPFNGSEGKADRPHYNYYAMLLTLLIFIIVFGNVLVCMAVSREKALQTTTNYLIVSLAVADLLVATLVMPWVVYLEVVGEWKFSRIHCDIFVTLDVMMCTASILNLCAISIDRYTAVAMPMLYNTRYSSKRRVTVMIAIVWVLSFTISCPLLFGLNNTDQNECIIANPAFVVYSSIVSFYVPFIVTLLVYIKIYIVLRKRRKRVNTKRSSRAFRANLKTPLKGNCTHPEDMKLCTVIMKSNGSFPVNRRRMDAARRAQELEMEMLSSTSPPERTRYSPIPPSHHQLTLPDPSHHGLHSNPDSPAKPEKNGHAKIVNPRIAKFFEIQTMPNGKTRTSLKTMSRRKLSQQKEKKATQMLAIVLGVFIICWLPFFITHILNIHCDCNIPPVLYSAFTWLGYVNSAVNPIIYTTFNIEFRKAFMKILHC
Method for D3 receptor: Using membrane samples of these cells, affinity of compounds for D2 receptor, D3 receptor and D4 receptor was examined by a receptor binding test. The receptor binding test was carried out in the following manner. A D2 receptor, D3 receptor or D4 receptor membrane sample and [^125 I] iodosulpride or [^3 H] YM-09151-2 (trade name, manufactured by Daiichi Pure Chemicals) were incubated at 25° C. for 1 hour in the presence of each compound to be tested. The reaction solution was filtered through a glass filter to measure the amount of radioisotope on the filter.

Broadly, the ED50 is the dose that gives a 50% effect, or the effect in half of the subjects. A higher ED50 goes with weaker potency. In data set [1], `CN1CCN(C2=Nc3cc(Cl)ccc3Nc3ccccc32)CC1` [Clozapine] gave an ED50 of 6.8 mg/kg. In addition, in the data set with schizophrenia patients (clinical), the “effect on negative symptoms” value is given as “effective for patients mainly having negative symptoms” and the “side effects such as extrapyramidal symptoms” value (“side effects such” for short) was “small extrapyramidal symptoms”.
As usually defined, the Ki is the equilibrium dissociation constant of an inhibitor or competing ligand from its target. With `COc1cc(OC)c([N+](=O)[O-])cc1C(=O)N[C@H]1CCN(C2C3CCCC2CCC3)C1` (stereo partly drawn) [Example 7, (S)-N-[1-(bicyclo[3.3.1]non-9-yl)-3-pyrrolidinyl]-2,4-dimethoxy-5-nitrobenzamide], the Ki on D2 receptor is 72 nM; on D3 receptor, 1.5 nM; on D4 receptor, 1.1 nM. The “Ratio D2/D3” value on D3 receptor is reported as 48. Moreover, the “Ratio D2/D4” value at D4 receptor turned out to be 65.
In the case of `COc1cc(OC)c(C(=O)N[C@H]2CCN(C3C4CCCC3CCC4)C2)cc1C#N` (stereo partly drawn) [Example 19, (S)-N-[1-(bicyclo[3.3.1]non-9-yl)-3-pyrrolidinyl]-5-cyano-2,4-dimethoxybenzamide], the Ki came to 350 nM on D2 receptor, 4 nM on D3 receptor and 2.6 nM at D4 receptor. In addition, the “Ratio D2/D3” value at D3 receptor was determined as 88. For the same compound, the “Ratio D2/D4” value at D4 receptor amounted to 135.
Turning to `CNc1cc(C(=O)N[C@H]2CCN(C3C4CCCC3CCC4)C2)c(OC)cc1OC` (stereo partly drawn) [Example 30, (S)-N-[1-(bicyclo[3.3.1]non-9-yl)-3-pyrrolidinyl]-2,4-dimethoxy-5-methylaminobenzamide hemifumarate], the inhibition constant (Ki) on D2 receptor was determined as 34 nM; on D3 receptor, 3.5 nM; at D4 receptor, 1.8 nM. Further, the “Ratio D2/D3” value on D3 receptor was 9.7. Further, on D4 receptor, the “Ratio D2/D4” value is given as 19. The compound also registered an ED50 in data set [1] of 1.8 mg/kg.
Regarding `O=C(CCCN1CCC(O)(c2ccc(Cl)cc2)CC1)c1ccc(F)cc1` [haloperidol], the “relative affinity for D2, D3 and/or D4 receptor” value in data set [2] is reported as “high affinity for D2 receptor in comparison with D3 receptor and/or D4 receptor”. Moreover, the “side effects such” value in the data set with schizophrenia patients (clinical) is “highly frequent onset of side effects”.
As for `CCN1CCCC1CNC(=O)c1cc(S(N)(=O)=O)ccc1OC` (stereo not drawn) [sulpiride], the “relative affinity for D2, D3 and/or D4 receptor” value in data set [2] is on record as “its affinity for D3 and/or D4 receptor is similar to its affinity for D2 receptor”. The “effect on negative symptoms” value in the data set on schizophrenia patients (clinical) is “certain degree of effects on negative symptoms”. Also, in the data set with schizophrenia patients (human, in vivo), the “side effects such” value is recorded as “relatively small side effects”.
